According to patent US6630499B1, “Control of arthropods in animals” (Aventis CropScience, S.A., priority 1998, dated 2003):

Tests used:
Assay type in all cases: in vivo
[1] = system: cat fleas (Ctenocephalides felis); test: Control of cat fleas on treated dogs (Biological Examples 1-3); details: dogs, 10 mg/kg, 30 mg/mL in 1:1 dimethyl sulfoxide/corn oil, 1 day post-treatment, versus placebo group
Procedure: (§1) All dogs were infested with cat fleas (Ctenocephalides felis) and with ticks (Rhipicephalus sanguineus) 1 day prior to administration of the compound. Cats were only infested with fleas. The initial flea and tick counts were performed 1 day after the administration of the compounds. At 7, 14, 21 and 28 days after treatment the dogs were re-infested with ticks and 8, 15, 22 and 29 days after treatment the dogs and cats were re-infested with fleas. At 1, 9, 16, 23 and 30 days after treatment the control of fleas and ticks in treated dogs and cats was determined versus a group of infested dogs and cats which received a placebo consisting of a 1:1 volume/volume solution of dimethyl sulfoxide and corn oil. To determine the efficacies of the compounds, the arthropods were combed from the animals and counted.
(§2) The compounds listed below were formulated and tested as described in Biological Example 1, again at the dosage level of active ingredient of 10 mg/kg in dogs and 20 mg/kg in cats. Results at 1 DPT (day post-treatment) are tabulated below, where the compound numbers are the same as those listed in Tables 1, 2, 4, 5, 6, 7, 8, 9, 10, 11, 12 and 13 hereinabove.
(§3) Testing was carried out as described in Biological Example 1. […] The Huang et al compound was deemed to have insufficient activity to be tested in cats.

[2] = system: ticks (Rhipicephalus sanguineus); test: Control of ticks on treated dogs (Biological Examples 1-3); details: dogs, 10 mg/kg, 30 mg/mL in 1:1 dimethyl sulfoxide/corn oil, 1 day post-treatment, versus placebo group
Procedure: as §1, §2, §3

[3] = system: cat fleas (Ctenocephalides felis); test: Control of cat fleas on treated cats (Biological Examples 1-3); details: cats, 20 mg/kg, 30 mg/mL in 1:1 dimethyl sulfoxide/corn oil, 1 day post-treatment, versus placebo group
Procedure: as §1, §2, §3

[4] = Emesis in treated dogs; details: dogs, 10 mg/kg
Procedure: (§4) By the term “emesis” is meant vomiting. Generally an emetic substance elicits emesis in less than 24 hours after administration, usually less than 8 hours, more usually less than 2 hours. By the term “substantially non-emetic” is meant that, generally, when a compound or composition of the invention is administered to a population of animals, more than 70% (or at least ⅔) of the animals are free of emesis. Preferably, more than 80%, most preferably more than 90%, of said population is free of emesis.
(§5) In the animals treated with the compounds above, there was substantially no emesis after 2, 8 and 24 hours. Generally long-term control of fleas and ticks was provided in dogs. In the cats treated, there was commercially acceptable control of fleas for at least one day post treatment.
as §2

[5] = Emesis in treated cats; details: cats, 20 mg/kg
Procedure: as §4, §5, §2

SMILES | % Control 1 DPT (Fleas/Ticks): Fleas [1] | % Control 1 DPT (Fleas/Ticks): Ticks [2] | % Control 1 DPT (Fleas) [3] | % Emesis [4] | % Emesis [5]
CCCN(C(=O)OCC)c1c(SC(F)(F)F)c(C#N)nn1-c1c(Cl)cc(C(F)(F)F)cc1Cl [Compound 76-1] | 100% | 86% | 100% | 0% | 0%
CCCOC(=O)N(CC)c1c(SC(F)(F)F)c(C#N)nn1-c1c(Cl)cc(C(F)(F)F)cc1Cl [Compound 74-1] | 99% | 87% | 100% | 0% | 0%
CN(C)C=Nc1c(SC(F)(F)F)c(C#N)nn1-c1c(Cl)cc(C(F)(F)F)cc1Cl [Compound 219, 3-cyano-1-(2,6-dichloro-4-trifluoromethylphenyl)-5-N′-dimethylaminomethylideneamino-4-trifluoromethylthiopyrazole] | 97% | 80% | 100% | 33% | 25%
COCC(=O)N(CC1CC1)c1c(S(=O)(=O)C(F)(F)F)c(C#N)nn1-c1c(Cl)cc(C(F)(F)F)cc1Cl [Compound 27-5] | 100/100% | 100/100% | 100% | 0% | 0%
CC(C)N(C(=O)C1CCCO1)c1c(SC(F)(F)F)c(C#N)nn1-c1c(Cl)cc(C(F)(F)F)cc1Cl (stereo not drawn) [Compound 3-7] | 100/100% | 100/100% | 100% | 0% | 0%
CCOCC(=O)N(C)c1c([S+]([O-])C(F)(F)F)c(C#N)nn1-c1c(Cl)cc(C(F)(F)F)cc1Cl (racemic) [Compound 3-3] | 100% | 98% | 100% | 0% | 0%
CCCN(C(=O)OC)c1c(SC(F)(F)F)c(C#N)nn1-c1c(Cl)cc(C(F)(F)F)cc1Cl [Compound 75-1] | 89% | 57% | 71% | 0% | 25%
CN(C(=O)c1ccco1)c1c(SC(F)(F)F)c(C#N)nn1-c1c(Cl)cc(C(F)(F)F)cc1Cl [Compound 130-1] | 100/100% | 100/100% | 93% | 0% | 25%
CC(=O)OCC(=O)N(C)c1c(SC(F)(F)F)c(C#N)nn1-c1c(Cl)cc(C(F)(F)F)cc1Cl [Compound 36-1] | 71% | 92% | 100% | 0% | 25%
CCOCC(=O)N(c1c(SC(F)(F)F)c(C#N)nn1-c1c(Cl)cc(C(F)(F)F)cc1Cl)C1CC1 [Compound 3-12] | 99% | 97% | 97% | 0% | 25%
CCCOC(=O)N(C)c1c(SC(F)(F)F)c(C#N)nn1-c1c(Cl)cc(C(F)(F)F)cc1Cl [Compound 70-1] | 99% | 100% | 85% | 0% | 0%
CCOC(=O)N(c1c(SC(F)(F)F)c(C#N)nn1-c1c(Cl)cc(C(F)(F)F)cc1Cl)C(C)C [Compound 80-1] | 100% | 94% | 99% | 0% | 0%
CCOC(C)C(=O)N(C)c1c(SC(F)(F)F)c(C#N)nn1-c1c(Cl)cc(C(F)(F)F)cc1Cl (racemic) [Compound 116-1] | 79% | 100% | 100% | 0% | 0%
CC(C)OCC(=O)N(C)c1c([S+]([O-])C(F)(F)F)c(C#N)nn1-c1c(Cl)cc(C(F)(F)F)cc1Cl (stereo not drawn) [Compound 4-3] | 100/100% | 100/100% | 100% | 33% | 25%
CCOCC(=O)N(C)c1c(S(=O)(=O)C(F)(F)F)c(C#N)nn1-c1c(Cl)cc(C(F)(F)F)cc1Cl [Compound 3-5] | 100/100% | 100/100% | 100% | 33% | 0%
COC(=O)N(C)c1c(SC(F)(F)F)c(C#N)nn1-c1c(Cl)cc(C(F)(F)F)cc1Cl [Compound 67-1] | 100/100% | 100/100% | 53% | 33% | 0%
CCN(C(=O)OC)c1c(SC(F)(F)F)c(C#N)nn1-c1c(Cl)cc(C(F)(F)F)cc1Cl [Compound 71-1] | 100/100% | 100/100% | 100% | 0% | 50%
CCCN(C(=O)COCC)c1c(SC(F)(F)F)c(C#N)nn1-c1c(Cl)cc(C(F)(F)F)cc1Cl [Compound 13-1] | 99% | 97% | 61% | 0% | 0%
CC(C)OC(=O)N(C)c1c(SC(F)(F)F)c(C#N)nn1-c1c(Cl)cc(C(F)(F)F)cc1Cl [Compound 69-1] | 98% | 94% | 100% | 0% | 0%
N#Cc1nn(-c2c(Cl)cc(C(F)(F)F)cc2Cl)c(N(CC2CC2)C(=O)C2CCCO2)c1S(=O)(=O)C(F)(F)F (racemic) [Compound 7-11] | 100/100% | 100/100% | 100% | 0% | 0%
N#Cc1nn(-c2c(Cl)cc(C(F)(F)F)cc2Cl)c(N=CNCC(F)(F)F)c1SC(F)(F)F.O=C(O)CC(O)(CC(=O)O)C(=O)O [Compound 233] | 100% | 77% | 95% | 0% | 0%
CCN(C(=O)OC(C)C)c1c(SC(F)(F)F)c(C#N)nn1-c1c(Cl)cc(C(F)(F)F)cc1Cl [Compound 73-1] | 100/100% | 100/100% | 93% | 0% | 0%
CCOCC(=O)N(C)c1c(SC(F)(F)F)c(C#N)nn1-c1c(Cl)cc(C(F)(F)F)cc1Cl [Compound 3-1] | 100% | 96% | 100% | 0% | 0%
COCCOCC(=O)N(C)c1c(S(=O)(=O)C(F)(F)F)c(C#N)nn1-c1c(Cl)cc(C(F)(F)F)cc1Cl [Compound 120-1] | 97% | 78% | 100% | 0% | 0%
CN(C(=O)C1CCCO1)c1c([S+]([O-])C(F)(F)F)c(C#N)nn1-c1c(Cl)cc(C(F)(F)F)cc1Cl (mixture of isomers) [Compound 1-9] | 100/100% | 100/100% | 100% | 0% | 0%
CCCN(C(=O)OC(C)C)c1c(SC(F)(F)F)c(C#N)nn1-c1c(Cl)cc(C(F)(F)F)cc1Cl [Compound 77-1] | 98% | 10% | 99% | 0% | 0%
CCC(=O)N(C)c1c(SC(F)(F)F)c(C#N)nn1-c1c(Cl)cc(C(F)(F)F)cc1Cl [Compound 123-1] | 74% | 0% | 100% | 0% | 25%
